# Measured values reported in patent US7671028B2, “Peptides that antagonize FPR class receptor mediated signaling” (POSTECH Foundation, priority 2004, dated 2010).
# Where a SMILES comes first, the peptide text is derived from it. Where no end group is shown, it is not given here. [ ]: non-standard residue; d: D form.
# Molecular target: T1, FPRL1 (Homo sapiens, UniProt P25090)
# T1 construct: expressed in transfected cells; host or cells: RBL-2H3 (rat basophilic leukaemia) cells
# T1 sequence (P25090 1-351): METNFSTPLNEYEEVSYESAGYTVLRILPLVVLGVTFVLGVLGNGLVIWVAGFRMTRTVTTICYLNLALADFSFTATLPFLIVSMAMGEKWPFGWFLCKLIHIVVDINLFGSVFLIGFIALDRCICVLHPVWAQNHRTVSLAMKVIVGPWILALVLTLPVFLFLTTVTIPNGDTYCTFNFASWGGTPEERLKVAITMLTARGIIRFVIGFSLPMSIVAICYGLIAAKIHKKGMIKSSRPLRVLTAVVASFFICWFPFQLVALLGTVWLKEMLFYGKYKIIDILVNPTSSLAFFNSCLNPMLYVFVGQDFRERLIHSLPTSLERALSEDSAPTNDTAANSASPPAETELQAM
# Assay: WKYMVm-induced [Ca2+]i increase in FPRL1-expressing RBL-2H3 cells (fura-2)
# Assay type: cell-based
# Conditions: inhibition of FPRL1 agonist-induced intracellular calcium increase; peptide added before agonist
# Experimental: FIGS. 3A-3B show effects of WRW^4 (SEQ ID NO:4) on the WKYMVm (SEQ ID NO:3)-induced [Ca^2+]i rise in FPRL1 expressing RBL-2H3 cells. Fura-2-loaded FPRL1-expressing RBL-2H3 cells were stimulated with vehicle or WRW^4 (SEQ ID NO:4) (10 μM) and then with WKYMVm (SEQ ID NO:3) (10 nM); or FPRL1-expressing RBL-2H3 cells were sensitized with DNP-specific IgE, loaded with fura-2, and activated with the antigen DNP-HSA (1 μg/ml). The changes in 340 nm/380 nm were monitored. The results are representative of three independent experiments (A). Cells were stimulated with various concentrations of WRW^4 (SEQ ID NO:4) prior to adding 10 nM of WKYMVm (SEQ ID NO:3) or 1 μg/ml of DNP-HSA. Peak levels of [Ca^2+]i increase were monitored. The results shown are the means±SE of four independent experiments (B).
# Intracellular calcium concentration ([Ca^2+]i) levels were determined by Grynkiewicz's method using fura-2/AM (25). Briefly, prepared cells were incubated with 3 μM fura-2/AM at 37° C. for 50 min in fresh serum free RPMI 1640 medium with continuous stirring. For DNP-HSA stimulation, RBL-2H3 cells were sensitized with 1 μg/ml mouse DNP-specific IgE overnight prior to fura-2 loading (26), and 2×10^6 cells were aliquoted for each assay in Ca^2+ free Locke's solution (154 mM NaCl, 5.6 mM KCl, 1.2 mM MgCl2, 5 mM HEPES, pH 7.3, 10 mM glucose, and 0.2 mM EGTA). The fluorescence changes at excitation wavelengths of 340 nm and 380 nm and a common emission wavelength of 500 nm were measured, and the calibrated fluorescence ratio was converted to [Ca^2+]i.
# The stimulation of FPRL1 by WKYMVm (SEQ ID NO:3) elicited a [Ca^2+]i increase in FPRL1-expressing RBL-2H3 cells (FIG. 3A). To investigate whether the inventive peptides inhibited WKYMVm (SEQ ID NO:3)-induced [Ca^2+]i increase, we stimulated fura-2 loaded FPRL1-expressing RBL-2H3 cells with various concentrations of WRW^4 (SEQ ID NO:4), and subsequently stimulated with effective concentration of WKYMVm (SEQ ID NO:3). […] To confirm specific inhibition by WRW^4 (SEQ ID NO:4) on FPRL1-induced signaling, we examined the effect of WRW^4 (SEQ ID NO:4) on another extracellular signal-induced [Ca^2+]i increase. FcεRI cross-linking has been reported to induce a [Ca^2+]i increase in RBL-2H3 cells (26). Stimulation of FPRL1-expressing RBL-2H3 cells (sensitized with 1 μg/ml mouse DNP-specific IgE) with 1 μg/ml DNP-HSA caused a dramatic increase in [Ca^2+]i (FIG. 3A).
# Methods and principles of assaying for the effects of a set of diverse peptides on the intracellular concentration of calcium when the peptides are contacted with the cells bearing FPRL1 before the FPRL1 agonist is added is described in Example 1.5 above, and further details of initial experimentation using the peptides is described in Example 2.2.
row,IC50 [µM],Compound
1,> 10,N=C(N)NCCC[C@H](N)C(=O)N[C@@H](Cc1c[nH]c2ccccc12)C(=O)N[C@@H](Cc1c[nH]c2ccccc12)C(=O)N[C@H](Cc1c[nH]c2ccccc12)C(N)=O [SEQ ID NO:36] (H-RWW[dW]-NH2)
2,> 10,NC(=O)[C@@H](Cc1c[nH]c2ccccc12)NC(=O)[C@H](Cc1c[nH]c2ccccc12)NC(=O)[C@H](Cc1c[nH]c2ccccc12)NC(=O)[C@@H](N)Cc1c[nH]c2ccccc12 [SEQ ID NO:35] (H-WWW[dW]-NH2)
3,> 10,WRRWWW-NH2 [SEQ ID NO:33]
4,> 10,N=C(N)NCCC[C@H](NC(=O)[C@@H](N)Cc1c[nH]c2ccccc12)C(=O)N[C@@H](Cc1c[nH]c2ccccc12)C(=O)N[C@@H](Cc1c[nH]c2ccccc12)C(N)=O [SEQ ID NO:34] (H-WRWW-NH2)
5,> 10,N=C(N)NCCC[C@H](NC(=O)[C@@H](N)Cc1c[nH]c2ccccc12)C(=O)N[C@@H](Cc1c[nH]c2ccccc12)C(N)=O [SEQ ID NO:7] (H-Trp-Arg-Trp-NH2)
6,> 10,NC(=O)[C@@H](Cc1c[nH]c2ccccc12)NC(=O)[C@H](Cc1c[nH]c2ccccc12)NC(=O)[C@H](Cc1c[nH]c2ccccc12)NC(=O)[C@H](Cc1c[nH]c2ccccc12)NC(=O)[C@H](Cc1c[nH]c2ccccc12)NC(=O)[C@@H](N)Cc1c[nH]c2ccccc12 [SEQ ID NO:32] (H-WWWWW[dW]-NH2)
7,> 10,WWWWWW-NH2 [SEQ ID NO:31]
8,1 ± 0.21,"H-WRWWWW-NH2 [SEQ ID NO:4, Trp-Arg-Trp-Trp-Trp-Trp-CONH2]"
9,0.0082 ± 0.0006,CSCC[C@H](NC(=O)[C@H](Cc1c[nH]c2ccccc12)NC(=O)[C@H](Cc1c[nH]c2ccccc12)NC(=O)[C@H](CCCNC(=N)N)NC(=O)[C@H](Cc1c[nH]c2ccccc12)NC(=O)[C@H](N)Cc1c[nH]c2ccccc12)C(N)=O [wWRWWM] (H-[dW]WRWWM-NH2)

# Test system: human neutrophils
# Assay: Superoxide generation in human neutrophils (cytochrome c reduction)
# Assay type: cell-based
# Conditions: agonist alone, concentration-dependent
# Experimental: FIGS. 7A-7D show effects of WRW^4 (SEQ ID NO:4) on the Aβ42-induced superoxide generation and chemotaxis in human neutrophils. […] Cytochrome c reduction was monitored, as described in EXAMPLES. The results shown are representative of four independent experiments (A, B). Chemotaxis assays were performed using a modified Boyden chamber assay, as described in EXAMPLES. […] The data are presented as mean±SE of three independent experiments each performed in duplicate (C, D).
# Superoxide anion generation was determined by measuring cytochrome c reduction using a microtiter 96 well plate ELISA reader (Bio-Tekinstruments, EL312e, Winooski, Vt.) as previously described (23). Human neutrophils (1×10^6 cells/100 μl of RPMI 1640 medium per well of a 96-well plate) were preincubated with 50 μM cytochrome c at 37° C. for 1 min and then incubated with the indicated concentrations of peptides. Superoxide generation was determined for the change in light absorption at 550 nm over 5 minutes at 1 min intervals.
# Superoxide generation is one of the important functions of phagocytic leukocytes like neutrophils (28).
row,Compound,peptide concentration of maximal superoxide generating effect [µM]
1,"Aβ42: amyloid β42 peptide, cleavage fragment of amyloid precursor protein, endogenous ligand for FPRL1",40
